Measurements from ChEMBL document CHEMBL3885861, “Open TG-GATES”.

Species: Rattus norvegicus
Assay: Open TG-GATES - Regimen: Daily Repeat
Type: toxicity, organism-based, Sprague-Dawley
Parameters: regimen Daily Repeat, gender Male, age 6 weeks
Settings: in vivo, po, 25 mg/kg, route gavage, dose level Low; for APTT / Bas / Eos / Fbg / Hb / Ht / Lym / MCH / MCHC / MCV / Mono / Neu / PT / Plat / RBC / Ret / WBC: tissue Blood; for KIDNEY_L / KIDNEY_R / KIDNEY_TOTAL: tissue Kidney; for LIVER: tissue Liver; for A/G / ALP / ALT / AST / BUN / CRE / Ca / Cl / DBIL / GLC / IP / K / LDH / Na / PL / RALB / TBIL / TC / TG / TP / gamma-GTP: tissue Plasma

In the case of `CCSCC[C@H](N)C(=O)O` [ETHIONINE], the TERMINAL_BW (72 h, time 3 day) is reported as 235.6 g, the APTT (72 h, time 3 day) is reported as 22.5 s and the Bas (72 h, time 3 day) is reported as 0%. It also gave an Eos (72 h, time 3 day) of 1%, a Fbg (72 h, time 3 day) of 213.8 mg/dL and a Hb (72 h, time 3 day) of 13.1 g/dL. It also gave a Ht (72 h, time 3 day) of 39.1%, a Lym (72 h, time 3 day) of 76.6% and an MCH (72 h, time 3 day) of 20.8 pg. For the same compound, the MCHC (72 h, time 3 day) was 33.6%, the MCV (72 h, time 3 day) was 61.9 fL and the Mono (72 h, time 3 day) was 2.8%. It also gave a Neu (72 h, time 3 day) of 18.8%, a PT (72 h, time 3 day) of 13.5 s and a Plat (72 h, time 3 day) of 126.1 x10_4/uL. For the same compound, the RBC (72 h, time 3 day) was 631.2 x10_4/ul, the Ret (72 h, time 3 day) was 6.4% and the WBC (72 h, time 3 day) was 124.8 x10_2/uL. It also gave a KIDNEY_L (72 h, time 3 day) of 1 g, a KIDNEY_R (72 h, time 3 day) of 1 g and a KIDNEY_TOTAL (72 h, time 3 day) of 2.1 g. The LIVER (72 h, time 3 day) was 11 g, the A/G (72 h, time 3 day) was 1.6 and the ALP (72 h, time 3 day) was 1017.8 IU/L. It also gave an ALT (72 h, time 3 day) of 39.2 IU/L, an AST (72 h, time 3 day) of 68.2 IU/L and a BUN (72 h, time 3 day) of 14.4 mg/dL. For the same compound, the CRE (72 h, time 3 day) was 0.4 mg/dL, the Ca (72 h, time 3 day) was 10.6 mg/dL and the Cl (72 h, time 3 day) was 100.2 meq/L. For the same compound, the DBIL (72 h, time 3 day) was 0.08 mg/dL, the GLC (72 h, time 3 day) was 203.4 mg/dL and the IP (72 h, time 3 day) was 8.7 mg/dL. For the same compound, the K (72 h, time 3 day) was 4 meq/L, the LDH (72 h, time 3 day) was 174.4 IU/L and the Na (72 h, time 3 day) was 139.6 meq/L. It also gave a PL (72 h, time 3 day) of 129.6 mg/dL, an RALB (72 h, time 3 day) of 3.5 g/dL and a TBIL (72 h, time 3 day) of 0.1 mg/dL. The TC (72 h, time 3 day) was 56.6 mg/dL, the TG (72 h, time 3 day) was 97 mg/dL and the TP (72 h, time 3 day) was 5.7 g/dL. The gamma-GTP (72 h, time 3 day) was 1.2 IU/L, the TERMINAL_BW ([…], time 7 day) was 268.3 g and the TERMINAL_BW ([…], time 14 day) was 312.6 g. It also gave a TERMINAL_BW ([…], time 28 day) of 389.5 g, an APTT ([…], time 7 day) of 22.7 s and a Bas ([…], time 7 day) of 0%. The Eos ([…], time 7 day) was 1%, the Fbg ([…], time 7 day) was 206.4 mg/dL and the Hb ([…], time 7 day) was 13.7 g/dL. The Ht ([…], time 7 day) was 40.1%, the Lym ([…], time 7 day) was 81.8% and the MCH ([…], time 7 day) was 20.8 pg. It also gave an MCHC ([…], time 7 day) of 34.2%, an MCV ([…], time 7 day) of 60.8 fL and a Mono ([…], time 7 day) of 2.2%. For the same compound, the Neu ([…], time 7 day) was 14.8%, the PT ([…], time 7 day) was 13.3 s and the Plat ([…], time 7 day) was 121.3 x10_4/uL. For the same compound, the RBC ([…], time 7 day) was 660 x10_4/ul, the Ret ([…], time 7 day) was 5.6% and the WBC ([…], time 7 day) was 94 x10_2/uL. For the same compound, the APTT ([…], time 14 day) was 22.1 s, the Bas ([…], time 14 day) was 0% and the Eos ([…], time 14 day) was 0.8%. For the same compound, the Fbg ([…], time 14 day) was 192.2 mg/dL, the Hb ([…], time 14 day) was 14.3 g/dL and the Ht ([…], time 14 day) was 41.5%. The Lym ([…], time 14 day) was 79.6%, the MCH ([…], time 14 day) was 20.8 pg and the MCHC ([…], time 14 day) was 34.6%. The MCV ([…], time 14 day) was 60.2 fL, the Mono ([…], time 14 day) was 2.2% and the Neu ([…], time 14 day) was 16.4%. The PT ([…], time 14 day) was 13.8 s, the Plat ([…], time 14 day) was 125.2 x10_4/uL and the RBC ([…], time 14 day) was 689 x10_4/ul. It also gave a Ret ([…], time 14 day) of 3.8%, a WBC ([…], time 14 day) of 109.7 x10_2/uL and an APTT ([…], time 28 day) of 24.9 s. For the same compound, the Bas ([…], time 28 day) was 0%, the Eos ([…], time 28 day) was 1.2% and the Fbg ([…], time 28 day) was 184.4 mg/dL. It also gave a Hb ([…], time 28 day) of 15.3 g/dL, a Ht ([…], time 28 day) of 44% and a Lym ([…], time 28 day) of 80%. For the same compound, the MCH ([…], time 28 day) was 19.7 pg, the MCHC ([…], time 28 day) was 34.7% and the MCV ([…], time 28 day) was 56.6 fL. For the same compound, the Mono ([…], time 28 day) was 2%, the Neu ([…], time 28 day) was 15.8% and the PT ([…], time 28 day) was 14 s. It also gave a Plat ([…], time 28 day) of 114 x10_4/uL, an RBC ([…], time 28 day) of 779.4 x10_4/ul and a Ret ([…], time 28 day) of 1.9%. For the same compound, the WBC ([…], time 28 day) was 137.8 x10_2/uL, the KIDNEY_L ([…], time 7 day) was 1.1 g and the KIDNEY_R ([…], time 7 day) was 1.1 g. It also gave a KIDNEY_TOTAL ([…], time 7 day) of 2.2 g, a KIDNEY_L ([…], time 14 day) of 1.3 g and a KIDNEY_R ([…], time 14 day) of 1.2 g. For the same compound, the KIDNEY_TOTAL ([…], time 14 day) was 2.5 g, the KIDNEY_L ([…], time 28 day) was 1.4 g and the KIDNEY_R ([…], time 28 day) was 1.4 g. The KIDNEY_TOTAL ([…], time 28 day) was 2.8 g, the LIVER ([…], time 7 day) was 12.3 g and the LIVER ([…], time 14 day) was 13.8 g. For the same compound, the LIVER ([…], time 28 day) was 17.2 g, the A/G ([…], time 7 day) was 1.7 and the ALP ([…], time 7 day) was 1036.6 IU/L. It also gave an ALT ([…], time 7 day) of 32.8 IU/L, an AST ([…], time 7 day) of 61.2 IU/L and a BUN ([…], time 7 day) of 15.2 mg/dL. The CRE ([…], time 7 day) was 0.4 mg/dL, the Ca ([…], time 7 day) was 10.5 mg/dL and the Cl ([…], time 7 day) was 103.2 meq/L. The DBIL ([…], time 7 day) was 0.086 mg/dL, the GLC ([…], time 7 day) was 195.8 mg/dL and the IP ([…], time 7 day) was 7.9 mg/dL. It also gave a K ([…], time 7 day) of 3.8 meq/L, an LDH ([…], time 7 day) of 205.8 IU/L and a Na ([…], time 7 day) of 141.6 meq/L. The PL ([…], time 7 day) was 143 mg/dL, the RALB ([…], time 7 day) was 3.7 g/dL and the TBIL ([…], time 7 day) was 0.1 mg/dL. It also gave a TC ([…], time 7 day) of 61 mg/dL, a TG ([…], time 7 day) of 141.4 mg/dL and a TP ([…], time 7 day) of 5.9 g/dL. For the same compound, the gamma-GTP ([…], time 7 day) was 1 IU/L, the A/G ([…], time 14 day) was 1.7 and the ALP ([…], time 14 day) was 768.4 IU/L. It also gave an ALT ([…], time 14 day) of 28.6 IU/L, an AST ([…], time 14 day) of 56.2 IU/L and a BUN ([…], time 14 day) of 16.8 mg/dL. The CRE ([…], time 14 day) was 0.5 mg/dL, the Ca ([…], time 14 day) was 10.3 mg/dL and the Cl ([…], time 14 day) was 101.8 meq/L. It also gave a DBIL ([…], time 14 day) of 0.09 mg/dL, a GLC ([…], time 14 day) of 215.4 mg/dL and an IP ([…], time 14 day) of 7.2 mg/dL. The K ([…], time 14 day) was 3.7 meq/L, the LDH ([…], time 14 day) was 202.4 IU/L and the Na ([…], time 14 day) was 140.8 meq/L. The PL ([…], time 14 day) was 126.8 mg/dL, the RALB ([…], time 14 day) was 3.6 g/dL and the TBIL ([…], time 14 day) was 0.1 mg/dL. For the same compound, the TC ([…], time 14 day) was 49.6 mg/dL, the TG ([…], time 14 day) was 134 mg/dL and the TP ([…], time 14 day) was 5.9 g/dL. For the same compound, the gamma-GTP ([…], time 14 day) was 0.8 IU/L, the A/G ([…], time 28 day) was 1.6 and the ALP ([…], time 28 day) was 588.2 IU/L. For the same compound, the ALT ([…], time 28 day) was 34.4 IU/L, the AST ([…], time 28 day) was 61.6 IU/L and the BUN ([…], time 28 day) was 18.6 mg/dL. The CRE ([…], time 28 day) was 0.5 mg/dL, the Ca ([…], time 28 day) was 10.4 mg/dL and the Cl ([…], time 28 day) was 103.4 meq/L. For the same compound, the DBIL ([…], time 28 day) was 0.1 mg/dL, the GLC ([…], time 28 day) was 221.8 mg/dL and the IP ([…], time 28 day) was 6.7 mg/dL. The K ([…], time 28 day) was 3.5 meq/L, the LDH ([…], time 28 day) was 209 IU/L and the Na ([…], time 28 day) was 142.4 meq/L. For the same compound, the PL ([…], time 28 day) was 124.2 mg/dL, the RALB ([…], time 28 day) was 3.8 g/dL and the TBIL ([…], time 28 day) was 0.2 mg/dL. For the same compound, the TC ([…], time 28 day) was 48.6 mg/dL, the TG ([…], time 28 day) was 144.8 mg/dL and the TP ([…], time 28 day) was 6.2 g/dL. It also gave a gamma-GTP ([…], time 28 day) of 1 IU/L.
